Laboratory results published in US12090141B2, “Use of clemizole compounds for treatment of inflammatory conditions” (priority 2015, dated 2024).

What was measured:
NASH mice [1] = test: Body weight and liver weight in NASH mice (sacrifice 9 wk); settings: for Mean body weight on the day of sacrifice vs Vehicle group / Mean liver weight on the day of sacrifice vs Vehicle group / Mean liver-to-body weight ratio on the day of sacrifice vs Vehicle group: 9 wk; for Body weight (mean ± SD): day of sacrifice 9 wk, n = 6, oral from 6 wks, A-C 258 then 129 mg/kg once daily, D 89 mg/kg twice daily; for Liver weight (mean ± SD) / Liver-to-body weight ratio (mean ± SD): sacrifice 9 wk, n = 6
Experimental: (§1) NASH was induced in 55 male mice by a single subcutaneous injection of 200 μg streptozotocin (STZ, Sigma-Aldrich, USA) solution 2 days after birth and feeding with high fat diet (HFD, 57 kcal % fat, cat #: HFD32, CLEA Japan, Inc., Japan) after 4 weeks of age. Mice that had been induced have NASH by this method are referred to below as NASH mice.
(§2) Compound D was orally administered at doses of 89 mg/kg twice daily.
C57BL/6 mice (14-day-pregnant female) were obtained from Japan SLC, Inc. (Shizuoka, Japan). All animals used in the study were housed and cared for in accordance with the Japanese Pharmacological Society Guidelines for Animal Use.

NASH mice [2] = test: Whole blood glucose and plasma ALT in NASH mice; type: in vivo, C57BL/6 mice; settings: for Whole blood glucose levels vs Vehicle group: during the study period, non-fasting; for Plasma ALT (mean ± SD): time of sacrifice, n = 6
Experimental: Non-fasting blood was collected in polypropylene tubes with anticoagulant (Novo-heparin, Mochida Pharmaceutical, Japan) from submandibular bleeding at 6 (before dosing), 7 and 8 weeks of age. The collected blood samples were centrifuged and the supernatant were collected as heparinized plasma.
Non-fasting blood glucose in whole blood was measured using LIFE CHECK (EIDIA Co. Ltd., Japan). Plasma ALT was measured by FUJI DRI-CHEM 7000 (Fujifilm Corporation, Japan).

NASH mice [3] = test: NAFLD activity score, HE staining of liver sections of NASH mice; type: in vivo, C57BL/6 mice; settings: for NAS (mean ± SD): n = 6, NAFLD activity score by Kleiner criteria; for Steatosis score 0, number of mice: n = 6, score 0 = <5%; for Steatosis score 1, number of mice: n = 6, score 1 = 5-33%; for Hepatocyte ballooning score 1, number of mice: n = 6, score 1 = Few Balloon cells; for Lobular inflammation score 2, number of mice: n = 6, score 2 = 2-4 foci/200x; for Hepatocyte ballooning score 2, number of mice: n = 6, score 2 = Many cells/prominent ballooning; for Lobular inflammation score 3, number of mice: n = 6, score 3 = >4 foci/200x; for Lobular inflammation score 1, number of mice: n = 6, score 1 = <2 foci/200x
Experimental: as §1, §2
(§3) For HE staining, sections were cut from paraffin blocks of liver tissue prefixed in Bouin's solution and stained with Lillie-Mayer's Hematoxylin (Muto Pure Chemicals Co., Ltd., Japan) and eosin solution (Wako Pure Chemical Industries). NAFLD Activity score (NAS) was calculated according to the criteria of Kleiner (Kleiner D E. et al., Hepatology, 2005; 41:1313). To visualize collagen deposition, Bouin's fixed liver sections were stained using picro-Sirius red solution (Waldeck, Germany).
Definition of NAS Components

NASH mice [4] = test: Liver fibrosis area, Sirius red staining in NASH mice; type: in vivo, C57BL/6 mice; settings: for Sirius red-positive area (mean ± SD): liver fibrosis area, n = 6
Experimental: as §3
For quantitative analysis of fibrosis areas bright field images of Sirius red-stained sections were captured around the central vein for livers using a digital camera (DFC280; Leica, Germany) at 200-fold magnification, and the positive areas in 5 fields/section were measured using ImageJ software (National Institute of Health, USA).

NASH induced HCC mice = test: Body weight and liver weight in NASH induced HCC mice (sacrifice 18 wk); type: in vivo; settings: for Body weight (mean ± SD) / Liver weight (mean ± SD) / Liver-to-body weight ratio (mean ± SD): NASH induced HCC mice, 18 wk, n = 1-3
Excerpt: Table 1 below summarizes the treatment schedule.

mice with HCC = test: Macroscopic analysis of liver tumor nodules in mice with HCC; type: in vivo, C57BL/6 mice; settings: for Maximum diameter of nodules (mean ± SD) / Number of nodules (mean ± SD): macroscopically visible tumor nodules on liver surface, n = 1-3
Experimental: The number of macroscopically visible tumor nodules formed on the liver surface was measured. The maximum diameter of macroscopically visible tumor nodules formed on the liver surface was measured.

[5] = test system: hepatocellular carcinoma (HCC); test: Phase IIa open label pilot study of clemizole in subjects with hepatocellular carcinoma; type: in vivo, human
Experimental: The completed study treats up to 40 patients. Initial clinical results from two patients with hepatocellular carcinoma who were administered 200 mg clemizole for 3 or 5 months are described below.

CYP3A4 = CYP3A4 (Homo sapiens, UniProt P08684); test: Clemizole metabolism by CYP450 enzymes in vitro; type: in vitro ADME
Sequence of CYP3A4 (P08684 whole entry): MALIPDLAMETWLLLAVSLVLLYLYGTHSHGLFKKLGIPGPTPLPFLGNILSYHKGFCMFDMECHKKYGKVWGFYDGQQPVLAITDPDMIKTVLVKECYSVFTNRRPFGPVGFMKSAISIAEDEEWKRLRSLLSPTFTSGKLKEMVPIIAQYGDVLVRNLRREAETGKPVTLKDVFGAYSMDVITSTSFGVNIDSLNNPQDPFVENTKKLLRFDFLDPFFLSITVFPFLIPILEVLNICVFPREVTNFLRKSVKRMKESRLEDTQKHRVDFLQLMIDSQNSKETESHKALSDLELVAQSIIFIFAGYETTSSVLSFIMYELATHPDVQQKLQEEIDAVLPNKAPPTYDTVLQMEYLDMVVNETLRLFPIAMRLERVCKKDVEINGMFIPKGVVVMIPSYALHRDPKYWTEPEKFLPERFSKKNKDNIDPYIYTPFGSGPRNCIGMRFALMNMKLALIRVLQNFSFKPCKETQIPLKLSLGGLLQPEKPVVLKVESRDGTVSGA

HCC [6] = settings: phase 2 study, cited from earlier work
HCC [7] = settings: phase 3 study, cited from earlier work
[8] = treatment period, 4 mice per group

Compound | Mean body weight on the day of sacrifice vs Vehicle group (NASH mice [1]) | Mean liver weight on the day of sacrifice vs Vehicle group (NASH mice [1]) | Mean liver-to-body weight ratio on the day of sacrifice vs Vehicle group (NASH mice [1]) | Body weight (mean ± SD) (NASH mice [1]) | Liver weight (mean ± SD) (NASH mice [1]) | Liver-to-body weight ratio (mean ± SD) (NASH mice [1]) | Whole blood glucose levels vs Vehicle group (NASH mice [2]) | Plasma ALT (mean ± SD) (NASH mice [2]) | NAS (mean ± SD) (NASH mice [3]) | Steatosis score 0, number of mice (NASH mice [3]) | Steatosis score 1, number of mice (NASH mice [3]) | Lobular inflammation score 2, number of mice (NASH mice [3]) | Hepatocyte ballooning score 2, number of mice (NASH mice [3]) | Lobular inflammation score 3, number of mice (NASH mice [3]) | Fibrosis area at the time of sacrifice vs Vehicle group (NASH mice [4]) | Sirius red-positive area (mean ± SD) (NASH mice [4]) | Liver weight (mean ± SD) (NASH induced HCC mice) | Liver-to-body weight ratio (mean ± SD) (NASH induced HCC mice) | Maximum diameter of nodules (mean ± SD) (mice with HCC; 18 wk) | Number of nodules (mean ± SD) (mice with HCC; 18 wk) | other results
CCN(CC)CCCC(C)Nc1ccnc2cc(Cl)ccc12 (stereo not drawn) [Compound A, Recemic mixture of R-chloroquine and S-chloroquine] | no significant differences | no significant differences | no significant differences | 15.0 ± 1.9 g | 1045 ± 243 mg | 7.0 ± 1.4% | no significant differences | 21 ± 13 U/L | 5.2 ± 0.8 | 1 | 5 | 1 | 3 | 5 | no significant differences | 0.87 ± 0.23% | 1443 ± 0 mg | 8.2 ± 0.0% | 6.1 ± 0.0 mm | 2.0 ± 0.0 | Hepatocyte ballooning score 1, number of mice (NASH mice [3]): 3; Body weight (mean ± SD) (NASH induced HCC mice): 17.5 ± 0.0 g; Mice died before reaching week 18 (NASH induced HCC mice; [8]): Three out of 4
CCN(CC)CCC[C@@H](C)Nc1ccnc2cc(Cl)ccc12 [Compound B, R-chloroquine] | no significant differences | no significant differences | no significant differences | 14.5 ± 2.4 g | 934 ± 135 mg | 6.5 ± 0.4% | no significant differences | 14 ± 6 U/L | 4.3 ± 0.5 | 1 | 5 | 4 | 5 | – | no significant differences | 0.78 ± 0.35% | 1616 ± 635 mg | 7.9 ± 3.0% | 11.1 ± 7.0 mm | 2.0 ± 1.4 | NAS compared with the Vehicle group (NASH mice [3]): significant reduction; Lobular inflammation score 1, number of mice (NASH mice [3]): 2; Hepatocyte ballooning score 1, number of mice (NASH mice [3]): 1; Body weight (mean ± SD) (NASH induced HCC mice): 20.4 ± 0.3 g; Mice died before reaching week 18 (NASH induced HCC mice; [8]): Two out of 4
CCN(CC)CCC[C@H](C)Nc1ccnc2cc(Cl)ccc12 [Compound C, S-chloroquine] | significantly decreased | significantly decreased | no significant differences | 13.7 ± 1.3 g | 810 ± 77 mg | 5.9 ± 0.4% | no significant differences | 9 ± 3 U/L | 5.3 ± 0.5 | – | 6 | 4 | 6 | 2 | no significant differences | 0.90 ± 0.44% | 1353 ± 178 mg | 7.6 ± 0.1% | 3.5 ± 5.0 mm | 1.5 ± 2.1 | Body weight (mean ± SD) (NASH induced HCC mice): 17.9 ± 2.8 g; Mice died before reaching week 18 (NASH induced HCC mice; [8]): Two out of 4
Clc1ccc(Cn2c(CN3CCCC3)nc3ccccc32)cc1 [Compound D, clemizole] | no significant differences | no significant differences | no significant differences | – | 1047 ± 76 mg | 6.8 ± 0.4% | no significant differences | 18 ± 10 U/L | 4.3 ± 1.0 | 1 | 5 | 1 | 6 | 1 | no significant differences | 0.95 ± 0.39% | 1710 ± 113 mg | 6.3 ± 0.8% | 0.7 ± 1.2 mm | 0.3 ± 0.6 | NAS compared with the Vehicle group (NASH mice [3]): significant reduction; Lobular inflammation score 1, number of mice (NASH mice [3]): 4; Mice died before reaching week 18 (NASH induced HCC mice; male, C57BL/6, mouse, in vivo): one out of 4; Survived mice with absence of visible tumor nodules on the liver surface (mice with HCC; 18 wk): 2 out of 3; Tumor formation in mouse livers (FIG. 8, representative images) (mice with HCC; mouse, in vivo): inhibition of tumor formation; HCC status on follow up dynamic liver CT imaging ([5]; Patient #1, 200 mg clemizole orally thrice daily, after 3 months): the HCC remained stable; Tolerability (complaints or side effects) ([5]; Patient #1, 200 mg thrice daily, after 3 months): no complaints or side effects; HCC status on follow up dynamic liver magnetic resonance imaging ([5]; Patient #2, 200 mg clemizole orally thrice daily, after 5 months): the HCC remained stable; Tolerability (complaints or side effects) ([5]; Patient #2, 200 mg thrice daily, after 5 months): no complaints or side effects; Role of CYP3A4 in clemizole biotransformation in human liver (CYP3A4): mediates the majority of this drug biotransformation reaction
CNC(=O)c1cc(Oc2ccc(NC(=O)Nc3ccc(Cl)c(C(F)(F)F)c3)cc2)ccn1 [sorafenib] | – | – | – | – | – | – | – | – | – | – | – | – | – | – | – | – | – | – | – | – | Toxicity: diarrhea (HCC [6]; all grades): over 40%; Toxicity: fatigue (HCC [6]; all grades): 30%; Toxicity: hand-foot skin reaction (HCC [6]; all grades): over 30%; Grade 3/4 drug-related toxicity: diarrhea (HCC [6]): 8.0%; Grade 3/4 drug-related toxicity: fatigue (HCC [6]): 9.5%; Grade 3/4 drug-related toxicity: hand-foot skin reaction (HCC [6]): 5.1%; Median time to progression (TTP) (HCC [6]): 4.2 months; Hypophosphatemia (HCC [7]; grade 3): 11%; Thrombocytopenia (HCC [7]; grade 3 or 4): 4%; Median time to radiologic progression (HCC [7]): 5.5 months; Overall incidence of treatment-related adverse events (HCC [7]): 80%
